From US20240368104A1, “Novel Dialkoxynaphtho[2,3-C]Furan-1(3H)-One Derivatives and Pharmaceutical Composition For Preventing or Treating Respiratory Disease or SARS-COV-2 Infection Disease, Comprising Same” (priority 2021, published 2024) come the findings set out here.

One series is described as follows: in vitro. As to conditions: African green monkey.
In the next series the test system is SARS-COV-2. The series is described as follows: microbe, parasite or virus in culture. In kind it is cell-based. Also on record: SI (Selectivity Index, CC50/IC50): unit not given here. The following applies: for SI (Selectivity Index, CC50/IC50): SARS-COV-2, values >50 assumed to be 50; for IC50: read-out: SARS-COV-2 inhibition (IC50).
Setting [1] is: Severe acute respiratory syndrome coronavirus 2, Vero cells, 24 hours infection.
Setting [2] is: Severe acute respiratory syndrome coronavirus 2, Vero, 24 h.

Counter-ions that a name gives are not always drawn. Like-named read-outs stand apart in the source and are kept apart here.

Take `COc1cc2cc3c(c(-c4cnc(N5CCC6(CC5)OCCO6)nc4)c2cc1OC)C(=O)OC3` [Example 89, 9-(2-(1,4-dioxa-8-azaspiro[4.5]decan-8-yl)pyrimidin-5-yl)-6,7-dimethoxynaphtho[2,3-c]furan-1(3H)-one]: the CC50 in the series “in vitro” was more than 50 µM. Further, the “SI (Selectivity Index, CC50/IC50)” value in the series with SARS-COV-2 is reported as 1.00. Besides, the concentration for half-maximal inhibition (IC50) (commonly the concentration needed to halve the response being measured) with SARS-COV-2 (setting [1]) was more than 50 µM.
In “in vitro”, `COc1cc2cc3c(c(-c4cc5c(cc4OC(=O)C(C)(C)C)OCO5)c2cc1OC)C(=O)OC3` [Example 276, 6-(6,7-dimethoxy-3-oxo-1,3-dihydronaphtho[2,3-c]furan-4-yl)benzo[d][1,3]dioxol-5-yl pivalate] gave a CC50 of more than 50 µM. Besides, the “SI (Selectivity Index, CC50/IC50)” value in the series on SARS-COV-2 came out at 1.00. The IC50 with SARS-COV-2 (setting [1]) was more than 50 µM.
Compound `CCCCN(C)c1ccc(-c2c3c(c(OC)c4cc(OC)c(OC)cc24)C(=O)OC3)cn1.Cl` [Example 261, 4-(6-(butyl(methyl)amino)pyridin-3-yl)-6,7,9-trimethoxynaphtho[2,3-c]furan-1(3H)-one] had a CC50 in “in vitro” of more than 50 µM. Moreover, the “SI (Selectivity Index, CC50/IC50)” value in the series with SARS-COV-2 was determined as 4.21. Also, in the series with SARS-COV-2 (setting [2]), the IC50 is 11.9 µM.
On to `COc1cc2cc3c(c(-c4ccc(N(C)c5ncn(C)n5)nc4)c2cc1OC)C(=O)OC3` [Example 206, 6,7-dimethoxy-9-(6-(methyl(1-methyl-1H-1,2,4-triazol-3-yl)amino)pyridin-3-yl)naphtho[2,3-c]furan-1(3H)-one], for which the CC50 in “in vitro” is more than 50 µM. Moreover, in the series with SARS-COV-2, the “SI (Selectivity Index, CC50/IC50)” value is listed as 2.79. The IC50 in the series on SARS-COV-2 (setting [1]) amounted to 17.9 µM.
The matching figures for `COc1cc2cc3c(c(-c4ccc(N5CCC(F)(F)CC5)nc4)c2cc1OC)C(=O)OC3` [Example 122, 9-(6-(4,4-difluoropiperidin-1-yl)pyridin-3-yl)-6,7-dimethoxynaphtho[2,3-c]furan-1(3H)-one]: more than 50 µM, 512.00 and 0.17 µM.
`COc1cc2cc3c(c(-c4ccc(N(C)c5ccc(S)cc5)nc4)c2cc1OC)C(=O)OC3.Cl` [Example 239, 9-(6-((4-mercaptophenyl)(methyl)amino)pyridin-3-yl)-6,7-dimethoxynaphtho[2,3-c]furan-1(3H)-one] registered a CC50 in the series “in vitro” of more than 50 µM. Further, the “SI (Selectivity Index, CC50/IC50)” value with SARS-COV-2 stood at 1.00. Also, the IC50 in the series on SARS-COV-2 (setting [2]) was more than 50 µM.
Turning to `CCCN(CC1CC1)c1ncc(-c2c3c(cc4cc(OC)c(OC)cc24)COC3=O)cn1` [Example 105, 9-(2-((cyclopropylmethyl)(propyl)amino)pyrimidin-5-yl)-6,7-dimethoxynaphtho[2,3-c]furan-1(3H)-one hydrochloride], in the series “in vitro”, the CC50 was more than 50 µM. The “SI (Selectivity Index, CC50/IC50)” value in the series on SARS-COV-2 turned out to be 9.56. The IC50 in the series with SARS-COV-2 (setting [2]) is 5.23 µM.
As to `COc1cc2cc3c(c(-c4ccc(N(C)C(C)=O)nc4)c2cc1OC)C(=O)OC3` [Example 230, N-(5-(6,7-dimethoxy-3-oxo-1,3-dihydronaphtho[2,3-c]furan-4-yl)pyridin-2-yl)-N-methylacetamide], the CC50 in “in vitro” was more than 50 µM. For the same compound, the “SI (Selectivity Index, CC50/IC50)” value in the series with SARS-COV-2 worked out at 2.45. In addition, in the series on SARS-COV-2 (setting [1]), the IC50 came out at 20.4 µM.
The matching figures for `COc1cc2cc3c(c(-c4cnc(N5CCC(C)CC5)nc4)c2cc1OC)C(=O)OC3` [Example 107, 6,7-dimethoxy-9-(2-(4-methylpiperidin-1-yl)pyrimidin-5-yl)naphtho[2,3-c]furan-(3H)-one hydrochloride]: more than 50 µM, 35.49 and 1.41 µM.
The compound `COc1cc2cc3c(c(-c4cnc(N(C)CCCN5CCOCC5)nc4)c2cc1OC)C(=O)OC3` [Example 112, 6,7-dimethoxy-9-(2-(methyl(3-morpholinopropyl)amino)pyrimidin-5-yl)naphtho[2,3-c]furan-1(3H)-one dihydrochloride] displayed a CC50 in the series “in vitro” of more than 50 µM. In addition, in the series on SARS-COV-2, the “SI (Selectivity Index, CC50/IC50)” value turned out to be 6.70. In addition, the IC50 in the series with SARS-COV-2 (setting [2]) amounted to 7.46 µM.
Turning to `COc1cc2cc3c(c(-c4ccc5cccnc5c4)c2cc1OC)C(=O)OC3` [Example 118, 6,7-dimethoxy-9-(quinolin-7-yl)naphtho[2,3-c]furan-1(3H)-one], in the series “in vitro”, the CC50 was more than 50 µM. The “SI (Selectivity Index, CC50/IC50)” value in the series on SARS-COV-2 came to 257.92. Besides, the IC50 in the series with SARS-COV-2 (setting [1]) turned out to be 0.19 µM.
Turning to `COc1cc2cc3c(c(-c4cnc(OCCN5C[C@@H](C)O[C@@H](C)C5)nc4)c2cc1OC)C(=O)OC3` [Example 54, 9-(2-(2-((2S,6R)-2,6-dimethylmorpholino)ethoxy)pyrimidin-5-yl)-6,7-dimethoxynaphtho[2,3-c]furan-1(3H)-one], the CC50 in “in vitro” is more than 50 µM. Further, the “SI (Selectivity Index, CC50/IC50)” value in the series on SARS-COV-2 turned out to be 1.00. Besides, the IC50 in the series with SARS-COV-2 (setting [1]) was more than 50 µM.
As to `COc1cc2cc3c(c(-c4cnc(N)cn4)c2cc1OC)C(=O)OC3` [Example 30, 9-(5-aminopyrazin-2-yl)-6,7-dimethoxynaphtho[2,3-c]furan-1(3H)-one], the CC50 in “in vitro” is more than 50 µM. In addition, in the series with SARS-COV-2, the “SI (Selectivity Index, CC50/IC50)” value stood at 1.00. The IC50 in the series on SARS-COV-2 (setting [1]) is more than 50 µM.
Regarding `COc1cc2cc3c(c(-c4cccc(N5CCCCC5)c4)c2cc1OC)C(=O)OC3` [Example 243, 6,7-dimethoxy-9-(3-(piperidin-1-yl)phenyl)naphtho[2,3-c]furan-1(3H)-one], the CC50 in the series “in vitro” was more than 50 µM. The “SI (Selectivity Index, CC50/IC50)” value in the series on SARS-COV-2 came out at 3.26. Further, the IC50 with SARS-COV-2 (setting [1]) came out at 15.3 µM.
With `COc1cc2cc3c(c(-c4cnc(N(C)CC5CC5)nc4)c2cc1OC)C(=O)OC3` [Example 68, 9-(2-((cyclopropylmethyl)(methyl)amino)pyrimidin-5-yl)-6,7-dimethoxynaphtho[2,3-c]furan-1(3H)-one], the CC50 in “in vitro” is more than 50 µM. Further, the “SI (Selectivity Index, CC50/IC50)” value in the series with SARS-COV-2 came out at 270.89. Also, in the series on SARS-COV-2 (setting [1]), the IC50 was determined as 0.18 µM.
`CCOP(=O)(OCC)Oc1cc2c(cc1-c1c3c(cc4cc(OC)c(OC)cc14)COC3=O)OCO2` [Example 277, 6-(6,7-dimethoxy-3-oxo-1,3-dihydronaphtho[2,3-c]furan-4-yl)benzo[d][1,3]dioxol-5-yl diethyl phosphate] yielded a CC50 in “in vitro” of more than 50 µM. Also, the “SI (Selectivity Index, CC50/IC50)” value with SARS-COV-2 was 1.00. The IC50 in the series with SARS-COV-2 (setting [2]) is more than 50 µM.
`CCN(c1ccc(-c2c3c(cc4cc(OC)c(OC)cc24)COC3=O)cn1)C1Cc2ccccc2C1` [Example 195, 9-(6-((2,3-dihydro-1H-indan-2-yl)(ethyl)amino)pyridin-3-yl)-6,7-dimethoxynaphtho[2,3-c]furan-1(3H)-one] returned a CC50 in “in vitro” of more than 50 µM. For the same compound, the “SI (Selectivity Index, CC50/IC50)” value with SARS-COV-2 stood at 9.50. In the series with SARS-COV-2 (setting [1]), the IC50 came out at 5.27 µM.
Taken in the same sequence, the figures for `COc1cc2cc3c(c(-c4ccc(N(C)[C@H]5CCc6c(cccc6OC)C5)nc4)c2cc1OC)C(=O)OC3` [Example 164, (S)-6,7-dimethoxy-9-(6-((5-methoxy-1,2,3,4-tetrahydronaphthalen-2-yl)(methyl)amino)pyridin-3-yl)naphtho[2,3-c]furan-1(3H)-one] were more than 50 µM, 39.02 and 1.28 µM.
Compound `COc1cc2cc3c(c(-c4ccc(N[C@H]5CCc6c(cccc6OC)C5)nc4)c2cc1OC)C(=O)OC3.Cl` [Example 172, (S)-6,7-dimethoxy-9-(6-((5-methoxy-1,2,3,4-tetrahydronaphthalen-2-yl)amino)pyridin-3-yl)naphtho[2,3-c]furan-1(3H)-one] registered a CC50 in “in vitro” of more than 50 µM. For the same compound, the “SI (Selectivity Index, CC50/IC50)” value in the series with SARS-COV-2 is 1.0. The IC50 in the series with SARS-COV-2 (setting [2]) is more than 50 µM.
The compound `COc1cc2cc3c(c(-c4ccc(-c5c(OC)ncnc5OC)cc4)c2cc1OC)C(=O)OC3` [Example 157, 9-(4-(4,6-dimethoxypyrimidin-5-yl)phenyl)-6,7-dimethoxynaphtho[2,3-c]furan-1(3H)-one] came in with a CC50 in the series “in vitro” of more than 50 µM. The “SI (Selectivity Index, CC50/IC50)” value in the series on SARS-COV-2 is 1.0. In addition, the half-maximal inhibitory concentration (IC50) with SARS-COV-2 (setting [1]) is more than 50 µM.
As for `COc1cc2cc3c(c(-c4ccc5ncc(C)cc5c4)c2cc1OC)C(=O)OC3` [Example 120, 6,7-dimethoxy-9-(3-methylquinolin-6-yl)naphtho[2,3-c]furan-1(3H)-one], the CC50 in “in vitro” was more than 50 µM. For the same compound, the “SI (Selectivity Index, CC50/IC50)” value in the series with SARS-COV-2 is reported as 12.07. Besides, in the series with SARS-COV-2 (setting [1]), the IC50 was 4.14 µM.
`COc1cc2cc3c(c(-c4ccc(N(C)c5ccc(N(C)C(C)=O)cc5)nc4)c2cc1OC)C(=O)OC3.Cl` [Example 236, N-(4-((5-(6,7-dimethoxy-3-oxo-1,3-dihydronaphtho[2,3-c]furan-4-yl)pyridin-2-yl)(methyl)amino)phenyl)-N-methylacetamide] had a CC50 in “in vitro” of more than 50 µM. Also, the “SI (Selectivity Index, CC50/IC50)” value in the series with SARS-COV-2 is reported as 30.25. For the same compound, in the series with SARS-COV-2 (setting [2]), the IC50 is 1.65 µM.
`COc1cc2cc3c(c(-c4ccc(N(C)C)nc4)c2cc1OC)C(=O)OC3` [Example 163, 9-(6-(dimethylamino)pyridin-3-yl)-6,7-dimethoxynaphtho[2,3-c]furan-1(3H)-one] gave a CC50 in “in vitro” of more than 50 µM. The “SI (Selectivity Index, CC50/IC50)” value in the series on SARS-COV-2 was determined as 885.42. Further, in the series with SARS-COV-2 (setting [1]), the IC50 is 0.06 µM.
`COc1cc2cc3c(c(-c4cnc(N(C)C)nc4)c2cc1OC)C(=O)OC3` [Example 11, 9-(2-(dimethylamino)pyrimidin-5-yl)-6,7-dimethoxynaphtho[2,3-c]furan-1(3H)-one] registered a CC50 in “in vitro” of more than 50 µM. The “SI (Selectivity Index, CC50/IC50)” value with SARS-COV-2 worked out at 309.03. In addition, the IC50 in the series on SARS-COV-2 (setting [1]) was found to be 0.16 µM.
Taken in the same sequence, the figures for `COc1cc2cc3c(c(-c4ccc(N5CC(C)CC(C)C5)nc4)c2cc1OC)C(=O)OC3` (stereo not drawn) [Example 127, 9-(6-(3,5-dimethylpiperidin-1-yl)pyridin-3-yl)-6,7-dimethoxynaphtho[2,3-c]furan-1(3H)-one] were more than 50 µM, 45.29 and 1.1 µM.
The matching figures for `COc1cc2cc3c(c(-c4cnc(N5CC(C)CC(C)C5)nc4)c2cc1OC)C(=O)OC3` (stereo not drawn) [Example 57, 9-(2-(3,5-dimethylpiperidin-1-yl)pyrimidin-5-yl)-6,7-dimethoxynaphtho[2,3-c]furan-1(3H)-one]: more than 50 µM, 12.07 and 4.14 µM.
